{"source": "paper PMC10892120", "about": "“Design, Synthesis and Biological Assessment of N′-(2-Oxoindolin-3-ylidene)-6-methylimidazo[2,1-b]thiazole-5-carbohydrazides as Potential Anti-Proliferative Agents toward MCF-7 Breast Cancer” (Pharmaceuticals, 2024)", "format_in_all_cases": "cell-based", "key": {"Cytochrome C": {"tested_on": "Cytochrome C", "assay": "RT-PCR gene expression in treated MCF-7 cells: cytochrome C", "settings": "treated MCF-7 cells vs untreated control MCF-7 (=1)", "description": "(§1) The gene expression levels of apoptosis genes in MCF-7 cells were measured using RT-PCR to validate the apoptosis-inducing behaviors of the potent lead compound 6i in MCF-7 cells.\n(§2) The gene expression levels of apoptosis genes were evaluated in MCF-7 cells using the following approaches in the Supplementary Data, page 43.\n(§3) Inhibitor solution of each well labeled as “Test Inhibitor”. For the “Positive Control\" and “Blank”, add 5 μl of the same solution without inhibitor (Inhibitor buffer). Prepare 3 ml of 1x Kinase Buffer 1 by mixing 600 μl of 5x Kinase Buffer 1 with 2400 μl water. 3 ml of 1x Kinase Buffer 1 is sufficient for 100 reactions. To the wells designated as \"Blank\", add 20 μl of 1x Kinase Buffer 1.\n(§4) Thaw VEGFR2 enzyme on ice. Upon first thaw, briefly spin tube containing enzyme to recover full content of the tube. Calculate the amount of VEGFR2 required for the assay and dilute enzyme to 1 ng/μl with 1x Kinase Buffer 1. Store remaining undiluted enzyme in aliquots at -80°C. Note:\n(§5) VEGFR2 enzyme is sensitive to freeze/thaw cycles. Avoid multiple freeze/thaw cycles. […]\n(§6) use thawed aliquots or diluted enzyme. […]\n(§7) thoroughly, and then centrifuge at 4°C to collect contents to the bottom of the tube. […] Preparation of a reaction cocktail is crucial in quantitative PCR applications to reduce pipetting errors and maximize assay precision and accuracy. […]"}, "MCF-7 breast cell line": {"tested_on": "MCF-7 breast cell line", "assay": "MTT assay, anti-proliferative activity toward MCF-7", "settings": "Homo sapiens, MCF7", "description": ". The developed compounds were evaluated in vitro using the MTT cell viability assay following the published techniques (Supplementary Data, page 42). […]\n(§8) The 96 well tissue culture plate was seeded with 1 X 10^5 cells / ml (100 ul / well) and cultured at 37 degrees Celsius for 24 hours to form a full monolayer sheet. After forming a confluent sheet of cells, growth medium was decanted from 96 well micro titer plates, the cell monolayer was washed twice with wash media, and two-fold dilutions of the tested sample were prepared in RPMI medium with 2% serum (maintenance medium). In each well, 0.1 ml of each dilution was examined, with three wells serving as controls and receiving only maintenance media.\n(§9) The plate was incubated at 37 degrees Celsius and then analyzed. Cells were examined for any physical evidence of toxicity, such as partial or total monolayer loss, rounding, shrinkage, or cell granulation. MTT solution (5mg/ml in PBS) was prepared (BIO BASIC CANADA INC), and 20ul MTT solution was added to each well. Shake the MTT into the medium for 5 minutes at 150rpm on a shaking table. Incubate for 4 hours (37°C, 5% CO2) to allow the MTT to be digested. Remove the media. (If required, dry plate on paper towels to remove residue. In 200ul DMSO, resuspend formazan (MTT metabolic product). Shake at 150rpm for 5 minutes to properly mix the formazan into the solvent. At 560nm, measure optical density and subtract background at 620nm. The optical density should be proportional to the number of cells. MCF-7 and MCF-10A cell lines were provided with 10% fetal bovine serum (FBS, Sigma-Aldrich, MO, USA). Data are presented as the mean of the IC50 values ± SD from three different experiments. […]"}, "MCF-10A": {"tested_on": "MCF-10A", "assay": "MTT assay, cytotoxicity toward MCF-10A", "settings": "Homo sapiens", "description": "The developed compounds were evaluated in vitro using the MTT cell viability assay following the published techniques (Supplementary Data, page 42). […]\nas §8, §9"}, "Caspase-9": {"tested_on": "Caspase-9", "assay": "RT-PCR gene expression in treated MCF-7 cells: caspase 9", "settings": "treated MCF-7 cells vs untreated control MCF-7 (=1)", "description": "as §1, §2, §3, §4, §5, §6, §7"}}}
{"smiles": "CCCCN1C(=O)C(=NNC(=O)c2c(C)nc3sccn23)c2ccccc21", "note": "[Compound 6i, N′-(1-Butyl-2-oxoindolin-3-ylidene)-6-methylimidazo[2,1-b]thiazole-5-carbohydrazide]", "values": [{"measurement": "RT-PCR Fold Change Cytochrome C", "setting": "Cytochrome C", "value": 2.420, "unit": "fold"}, {"measurement": "IC50", "setting": "MCF-7 breast cell line", "value": "8.38 ± 0.62", "unit": "µM"}, {"measurement": "IC50", "setting": "MCF-10A", "value": "54.6 ± 1.29", "unit": "µM"}, {"measurement": "RT-PCR Fold Change Caspase-9", "setting": "Caspase-9", "value": 4.947, "unit": "fold"}]}
